# Source: US20040131701A1, “Method to treat infectious diseases and/or to enhance antimicrobial efficacy of drugs” (Virocell Inc., priority 2000, published 2004)
# How the values were obtained:
# [1] = test system: recombinant luciferase-encoding virions (NL4-3 backbone) pseudotyped with T-tropic HXB-2D envelope; assay: Infection of Jurkat cells with luciferase-encoding virions, HXB-2D envelope; format: cell-based, HIV-1; settings: 72 h
# From the text: (§1) Fully infectious viral entities were generated by calcium phosphate transfection of 293T with pNL4-3 vector (T-tropic virions) as described below. Recombinant luciferase-encoding virus particles pseudotyped with the appropriate Env proteins have been used in our series of investigations. […] This test is based on the molecular construct pNL4-3-Luc-E-R+, a vector that carries the gene for firefly luciferase inserted into the nef gene of the pNL4-3 provirus and contains also a frameshift at the 5′ end of env (nt 5950) that prevents expression of the envelope glycoproteins. Progeny viruses were generated by cotransfecting 293T cells with pNL4-3-Luc-E-R+ and a plasmid DNA encoding for the appropriate envelope glycoproteins (T or macrophage-tropic). Briefly, a typical transfection experiment was performed as follow. In brief, 293T cells were plated 24 h before transfection at a concentration of 5×10^5 cells per 3 ml of DMEM into each well of 6-well plates. All solutions were brought to room temperature before use. Immediately before transfection, DNA was added to 25 μl of 2.5M CaCl2 and the volume was completed to 250 μl with distilled water. This solution was then added drop by drop to 250 μl of 2×HBS solution (280 mM NaCl, 50 mM HEPES, 1.5 mM Na2HPO4, pH 7.05) and the resulting mixture was stored at room temperature for 5 min. This DNA-HBS mixture was finally added drop by drop to plated 293T cells before incubation at 37° C. under a 5% CO2atmosphere. At 16 h after transfection, cells were washed twice with 3 ml of PBS and were incubated for an additional 24 h with 3 ml of DMEM supplemented with 10% FBS. Virion-containing supernatants were filtered through a 0.45-μm cellulose acetate membrane (Millipore, Mass.), aliquoted in 200 μl fractions, and were finally frozen at −85° C. until needed. Virus stocks were normalized for virion content using a commercial assay for the viral major core protein p24 (Organon Teknika, Durham, N.C.).
# (§2) In brief, 100 μl of cell-free supernatant were discarded from each well and 25 μl of cell culture lysis buffer 5×(125 mM Tris phosphate [pH 7.8], 10 mM DTT, 5% Triton X-100, and 50% glycerol) were added to the wells before incubation at room temperature for 30 min. An aliquot of cell lysate (20 μl) was mixed with 100 μl luciferase assay buffer (20 mM tricine, 1.07 mM (MgCO3)4. Mg(OH)2.5H2O, 2.67 mM MgSO4, 0.1 mM EDTA, 270 μM coenzyme A, 470 μM luciferin, 530 μM ATP, and 33.3 mM DTT). Luciferase activity was monitored using a microplate luminometer (MLX; Dynex Technologies, Chantilly, Va.).
# We attempted to define any putative interaction (additive, synergistic or antagonistic) between bpV compounds and currently approved anti-HIV-1 agents (AZT/Zidovudine, 3TC/Epivir/Lamivudine). […]
# [2] = test system: macrophage-tropic recombinant luciferase-encoding HIV-1 particles; assay: Infection of PM1 cells with luciferase reporter virus, macrophage-tropic envelope; format: cell-based; settings: 5 min pretreatment, 72 h
# From the text: (§3) Fully infectious viral entities were generated by calcium phosphate transfection of 293T with pNL4-3 vector (T-tropic virions) as described below. Recombinant luciferase-encoding virus particles pseudotyped with the appropriate Env proteins have been used in our series of investigations. Such a system provides a highly sensitive and reproducible assay to monitor single-cycle viral infection events. This test is based on the molecular construct pNL4-3-Luc-E-R+, a vector that carries the gene for firefly luciferase inserted into the nef gene of the pNL4-3 provirus and contains also a frameshift at the 5′ end of env (nt 5950) that prevents expression of the envelope glycoproteins. Progeny viruses were generated by cotransfecting 293T cells with pNL4-3-Luc-E-R+ and a plasmid DNA encoding for the appropriate envelope glycoproteins (T or macrophage-tropic). Briefly, a typical transfection experiment was performed as follow. […]
# (§4) In brief, 100 μl of cell-free supernatant were discarded from each well and 25 μl of cell culture lysis buffer 5×(125 mM Tris phosphate [pH 7.8], 10 mM DTT, 5% Triton X-100, and 50% glycerol) were added to the wells before incubation at room temperature for 30 min. […] Luciferase activity was monitored using a microplate luminometer (MLX; Dynex Technologies, Chantilly, Va.). […]
# [3] = test system: T-tropic recombinant luciferase-encoding HIV-1 particles; assay: Infection of PM1 cells with luciferase reporter virus, T-tropic envelope; format: cell-based; settings: 5 min pretreatment, 72 h
# From the text: as §3, §4
# [4] = test system: recombinant luciferase-encoding virions (NL4-3 backbone) pseudotyped with macrophage-tropic ADA envelope; assay: Infection of primary human MDM with luciferase-encoding virions, ADA envelope; format: cell-based, HIV-1; settings: 48 h; for anti-HIV-1 efficacy (luciferase activity): 10 μM bpV[pic] or 5 μM bpV[phen], pretreatment 5 to 120 min
# From the text: as §1, §2
# [5] = test system: T-tropic strain HIV-1NL4-3; assay: Replication of HIV-1 in Sup-T1 cells (p24 in culture supernatants); format: cell-based; settings: 10 days, all three tested concentrations
# From the text: as §3, with “glycoproteins.” for “glycoproteins. Progeny viruses were generated by cotransfecting 293T cells with pNL4-3-Luc-E-R+ and a plasmid DNA encoding for the appropriate envelope glycoproteins (T or macrophage-tropic). Briefly, a typical transfection experiment was performed as follow.”
# Sup-T1 cells were seeded at a density of 10^5 cells per well (100 μl) in 96-well flat-bottom, plates. […] Cells were incubated for 10 days and kinetics of viral infection was assessed by measuring in cell-free culture supernatants the major core viral p24 protein with the use of a commercial enzymatic assay (Organon Teknika). Putative toxicity of bpV molecules was assessed by adding the tetrazolium salt MTT to Sup-T1 cells that were cultured for 10 days under the constant pressure of the indicated concentrations of bpV[pic] and bpV[phen] molecules.
# primary human MDM = assay: MTT toxicity in primary human MDM; format: cell-based; settings: 48 h
# From the text: Target cells used in the present invention include human CD4-expressing T lymphoid Sup-T1, PM1, and Jurkat cells. Moreover, primary human monocyte-derived macrophages (MDM) and peripheral blood mononuclear cells (PBMC′) were also used in the current work, MDM were obtained using a standard technique. In brief, the mononuclear cell fraction was isolated by Ficoll-Hypaque centrifugation. Peripheral blood mononuclear cells were suspended in seeding medium (RPMI 1640+20% fetal calf serum+10% human serum type AB) in tissue culture 48-well plates (3×10^6 cells/ml and 500 μl per well). Five days after the initiation of the cultures, nonadherent cells were removed by rinsing the cultures three times with phosphate buffered saline. Next, such adherent cells were maintained in RPMI 1640 medium supplemented with 20% fetal calf serum.
# Putative toxicity of bpV[pic] and bpV[phen] molecules was next assessed by adding the tetrazolium salt MTT to primary human MDM that were cultured for 48 h under the constant pressure of the indicated concentrations of bpV compounds.
# [6] = test system: Human peripheral blood mononuclear cells; assay: HPLC analysis of phosphorylated forms of 3TC in PBMC's; format: cell-based; settings: 10 μM bpV[pic], 3TC at 5, 10 and 20 μM
# Method: Analysis of the cellular content in 3TC and its phosphorylated metabolites was performed by HPLC as follows. In preparations for HPLC analysis, 1 ml of a mixture of acetonitrile/water (5/95, vol/vol) and 0.5 ml water were added to each sample. The samples were vortexed and centrifuged at 1000×g for 10 min at room temperature to remove the precipitated material. The supernatants were collected and used without further treatment for HPLC analysis. Two (2) ml of each sample (total volume of ˜2.5 ml) were injected onto a Beckman Ultrasphere ODS column (4.6 mm×150 mm) protected with a Guard-Pak C18 (Waters Millipore) pre-column. 3TC and its metabolites were eluted using a linear gradient from 100% solvent A to 100% solvent B in 25 minutes at a flow rate of 1.2 ml/minute (Solvent A: 5% acetonitrile, 70% water, 25% buffer [40 mM H3PO4, 8 mM tetrabutylammonium hydroxide, adjusted to pH 6.75 with concentrated ammonium hydroxide]; Solvent B: 40% acetonitrile, 35% water, 25% buffer). The elution of metabolites was monitored by counting radioactivity using a Flow Scintillation Analyser 500TR Series (Packard); the HPLC column effluent (1.2 ml/min) was mixed with a liquid scintillation cocktail (3 ml/min) (Ultima Flow M, Packard).
# Human peripheral blood mononuclear cells (PBMC's) were obtained from healthy donors subjected to lymphopheresis for 60 min. The yield of PBMC's ranged from 1.8 to 2.6 billion cells per donor. Twenty-five (25) ml fractions of the cell suspensions (obtained by lymphopheresis) were layered on cushions (15 ml) of Lymphocyte Separation Medium (Wisent) in 50 ml tubes, which were then centrifuged at room temperature at 750×g during 25 min. The purified PBMC's were collected (on top of the Ficoll cushions) and washed 3 times in HBSS (without calcium and magnesium) (500×g, 7 min. at room temperature). The cells were resuspended in RPMI containing 5% FBS at the cell concentration of 25×10^6 per ml. Incubations were carried out using 1 ml of PBMC's suspension per tube. […]
# Sup-T1 cells = format: cell-based, human
# Method: Sup-T1 cells were seeded at a density of 10^5 cells per well (100 μl) in 96-well flat-bottom, plates. Cells were either left untreated (control) or were pretreated for 5 min at 37° C. with the two different bpV molecules (bpV [pic] and bpV[phen]) at the indicated concentrations in a final volume of 200 μl. Next, both untreated and bpV-treated Sup-T1 cells were inoculated with the fully infectious T-tropic strain HIV-1NL4-3 (10 ng of p24). Culture medium was replaced twice a week and was supplemented with the appropriate final concentration of bpV molecules. Cells were incubated for 10 days and kinetics of viral infection was assessed by measuring in cell-free culture supernatants the major core viral p24 protein with the use of a commercial enzymatic assay (Organon Teknika). Putative toxicity of bpV molecules was assessed by adding the tetrazolium salt MTT to Sup-T1 cells that were cultured for 10 days under the constant pressure of the indicated concentrations of bpV[pic] and bpV[phen] molecules.
compound,measurement,setting,value
"Cc1cn([C@H]2C[C@H](N=[N+]=[N-])[C@@H](CO)O2)c(=O)[nH]c1=O [AZT, Zidovudine, reference compound]",virus infection (luciferase activity),[1]; antiviral agent alone 0.05 μM,decreased
"O.O.O.OO.OO.[K+].[OH-].[V].c1cnc2c(c1)ccc1cccnc12 [bpV[phen], K[VO(O2)2phen]0.3H2O]",infection (luciferase activity),[2],dose-dependent inhibition of infection
same,infection (luciferase activity),[3],dose-dependent inhibition of infection
same,anti-HIV-1 efficacy (luciferase activity),[4]; MDM,maintained over several pretreatment periods
same,HIV-1 production (p24),[5],dramatic decrease of HIV-1 production
same,toxicity (MTT),primary human MDM; 10 and 20 μM,detectable toxic effect
K2[VO(O2)2pic].H2O [bpV[pic]],infection (luciferase activity),[2],dose-dependent inhibition of infection
same,infection (luciferase activity),[3],dose-dependent inhibition of infection
same,HIV-1 infection (luciferase activity),"[4]; MDM, 10 μM alone, 15 min pretreatment",inhibits HIV-1 infection
same,anti-HIV-1 efficacy (luciferase activity),[4]; MDM,maintained over several pretreatment periods
same,antiviral effect in combination with 3TC,"[4]; MDM, 10 μM bpV[pic] with 0.035 μM 3TC, 15 min pretreatment",additive antiviral effect
same,anti-HIV-1 effect in combination with 3TC,"[4]; MDM, 1, 5 and 10 μM bpV[pic] with 0.07 μM 3TC, 5 min pretreatment",dose-dependent additive anti-HIV-1 effect
same,HIV-1 production (p24),[5],dramatic decrease of HIV-1 production
same,formation of 3TC diphosphate,[6],decreased
same,formation of 3TC triphosphate,[6],increased
same,ratio of 3TC triphosphate over 3TC diphosphate,[6],consistently increases
same,toxicity (MTT),Sup-T1 cells,no toxic effect
same,HIV-1 infection (luciferase activity),"[1]; bpV compound alone (2.5, 5, 10 μM)",inhibits HIV-1 infection
same,antiviral effect in combination with 3TC,[1]; combined with 0.05 μM 3TC,greater antiviral effect
same,antiviral effect in combination with AZT,[1]; combined with 0.05 μM AZT,greater antiviral effect
same,toxicity (MTT),primary human MDM; 20 μM,toxic
